# Data as given in patent US20120034613A1, “Apparatus and Method for Testing Relationships Between Gene Expression and Physical Appearance of Skin” (NSE Products, Inc., priority 2010, published 2012).
# Tested on: EpidermFT™ Skin Model (EFT-400) full thickness skin cultures
# Experiment: Affymetrix GeneChip HG U133 Plus 2.0 microarray global gene expression, agent-exposed vs untreated skin cultures
# Assay type: cell-based, human
# Conditions: Salicin 0.5% vs Untreated Control, 24 hr treatment
smiles,measurement,value
"OCc1ccccc1O[C@@H]1O[C@H](CO)[C@@H](O)[C@H](O)[C@H]1O [Salicin, 2-(Hydroxymethyl)phenyl β-D-glucospyranoside]",Fold change ING1 (209808_x_at),2.572
same,Fold change IRAK2 (231779_at),2.734
same,Fold change IRAK3 (220034_at),2.411
same,Fold change ITPRIP (225582_at),2.421
same,Fold change JHDM1D (225142_at),2.825
same,Fold change KCNA3 (207237_at),2.308
same,Fold change KCNE4 (222379_at),2.686
same,Fold change KCNE4 (1552508_at),2.802
same,Fold change KCNJ8 (205303_at),2.493
same,Fold change KCNJ8 (205304_s_at),2.387
same,Fold change KLF15 (231015_at),2.338
same,Fold change KLHL29 (229310_at),2.719
same,Fold change LCP1 (208885_at),2.513
same,Fold change LOC285628 (232504_at),2.636
same,Fold change LOC440028 (1562606_a_at),2.7
same,Fold change LOC729222 /// PPFIBP1 (214375_at),2.426
same,Fold change LOC100128821 /// ZEB2 (235593_at),2.365
same,Fold change LOC100132244 (229438_at),2.299
same,Fold change LPAR1 (204036_at),2.391
same,Fold change LPAR1 (204037_at),2.425
same,Fold change LPAR1 (204038_s_at),2.732
same,Fold change LPPR4 (213496_at),2.406
same,Fold change LRCH2 (227688_at),2.318
same,Fold change LRRK2 (229584_at),2.314
same,Fold change MAGEA4 (214254_at),2.513
same,Fold change MAP3K4 (216199_s_at),2.654
same,Fold change MAP3K5 (203836_s_at),2.356
same,Fold change MAP9 (220145_at),2.4529
same,Fold change MASP1 (232224_at),2.402
same,Fold change MASP1 (235770_at),2.324
same,Fold change MESDC1 (223264_at),2.618
same,Fold change MGST1 (239001_at),2.428
same,Fold change MMD (203414_at),2.313
same,Fold change MTHFD2L (220346_at),2.597
same,Fold change MYO3B (1552578_a_at),2.338
same,Fold change NAMPT (217738_at),2.668
same,Fold change NEGR1 (1553194_at),2.339
same,Fold change NEXN (226103_at),2.323
same,Fold change NFKB2 (207535_s_at),2.67
same,Fold change NFKBIZ (223217_s_at),2.35
same,Fold change NOVA1 (205794_s_at),2.682
same,Fold change NR4A1 (202340_x_at),2.338
same,Fold change NRP2 (228699_at),2.306
same,Fold change OLAH (222945_x_at),2.586
same,Fold change PAPPA (201981_at),2.727
same,Fold change PAPPA (224940_s_at),2.664
same,Fold change PAPPA (224941_at),2.737
same,Fold change PAPPA (228128_x_at),2.482
same,Fold change PAPPA (1559400_s_at),2.415
same,Fold change PCDH7 (210941_at),2.333
same,Fold change PCSK1 (205825_at),2.59
same,Fold change PDE4D (211840_s_at),2.429
same,Fold change PEG10 (212092_at),2.813
same,Fold change PF4 (206390_x_at),2.652
same,Fold change PGM2L1 (229256_at),2.478
same,Fold change PHLDA1 (217996_at),2.515
same,Fold change PHTF1 (215285_s_at),2.498
same,Fold change PI15 (229947_at),2.619
same,Fold change PID1 (219093_at),2.447
same,Fold change PID1 (237867_s_at),2.743
same,Fold change PISD (202392_s_at),2.402
same,Fold change PITPNC1 (238649_at),2.621
same,Fold change PLAUR (211924_s_at),2.357
same,Fold change PLEKHA3 (223370_at),2.302
same,Fold change PTGER4 (204897_at),2.525
same,Fold change PTGES (207388_s_at),2.768
same,Fold change PTGES (210367_s_at),2.519
same,Fold change PTGS1 (205128_x_at),2.327
same,Fold change PTGS1 (215813_s_at),2.306
same,Fold change PTHLH (206300_s_at),2.505
same,Fold change PTHLH (211756_at),2.599
same,Fold change PTPRG (204944_at),2.299
same,Fold change QKI (228540_at),2.426
same,Fold change RAB3B (205924_at),2.634
same,Fold change RAB3B (227123_at),2.514
same,Fold change RAB23 (220955_x_at),2.644
same,Fold change RABGGTB (209180_at),2.305
same,Fold change RABGGTB (213704_at),2.423
same,Fold change RAI14 (202052_s_at),2.503
same,Fold change RASSF8 (235996_at),2.788
same,Fold change RGS3 (203823_at),2.462
same,Fold change RGS5 (209070_s_at),2.7
same,Fold change RGS12 (242079_at),2.358
same,Fold change RHOQ (212122_at),2.398
same,Fold change SEC24A (212902_at),2.298
same,Fold change SEMA3A (206805_at),2.505
same,Fold change SETDB2 (235339_at),2.377
same,Fold change SGK1 (201739_at),2.419
same,Fold change SH3RF3 (228461_at),2.389
same,Fold change SHOX (207570_at),2.312
same,Fold change SLC6A15 (232263_at),2.365
same,Fold change SLC11A2 (237106_at),2.533
same,Fold change SLC20A1 (230494_at),2.526
same,Fold change SLC43A3 (210692_s_at),2.457
same,Fold change SLFN11 (226743_at),2.451
same,Fold change SLIT2 (209897_s_at),2.499
same,Fold change SNHG12 (223774_at),2.339
same,Fold change SOCS2 (203373_at),2.46
same,Fold change SPON1 (209437_s_at),2.36
same,Fold change SPON1 (213993_at),2.499
same,Fold change SQSTM1 (213112_s_at),2.447
same,Fold change ST3GAL1 (208322_s_at),2.644
same,Fold change ST3GAL1 (225033_at),2.64
same,Fold change STK17B (205214_at),2.309
same,Fold change SULF1 (212344_at),2.665
same,Fold change TAF1A (206613_s_at),2.359
same,Fold change TAGLN (205547_s_at),2.426
same,Fold change TBC1D1 (212350_at),2.386
same,Fold change TBC1D1 (227945_at),2.566
same,Fold change TGM2 (201042_at),2.351
same,Fold change THBS1 (201108_s_at),2.756
same,Fold change THBS1 (239336_at),2.417
same,Fold change THRAP3 (242163_at),2.62
same,Fold change TMEM38B (222735_at),2.489
